Assay results published in patent publication USRE37839E1, “O-benzyloxime ethers and crop protection agents containing these compounds” (BASF Aktiengesellschaft, priority 1990, dated 2002).

Columns and labels:
[1] = test system: brown rust (Puccinia recondita); assay: Action on wheat brown rust; format: in vivo, Puccinia recondita on wheat seedlings ("Kanzler"); settings: 0.025 wt % spray liquors; sprayed 24 h after infection; assessed after 8 days
Protocol: Leaves of pot-grown wheat seedlings of the “Kanzler” variety were dusted with spores of brown rust (Puccinia recondita). The pots were then placed for 24 hours at 20° to 22° C. in a high-humidity (90-95%) chamber. During this period the spores germinated and the germ tubes penetrated the leaf tissue. […] After the sprayed-on layer had dried, the plants were set up in the greenhouse at 20° to 22° C. and a relative humidity of 65 to 70%. The extent of rust fungus spread on the leaves was assessed after 8 days.

[2] = test system: Plasmopara viticola; assay: Action on Peronospora in grapes; settings: 0.025 wt % spray liquors; leaves infected 8 days after spraying
Protocol: Leaves of potted vines of the “Müller Thurgau” variety were sprayed with aqueous liquors containing (dry basis) 80% of active ingredient and 20% of emulsifier. To assess the duration of action of the active ingredients, the plants were, after the sprayed-on layer had dried, set up in the greenhouse for 8 days. Only then were the leaves infected with a zoospore suspension of Plasmopara viticola. The vines were then placed for 48 hours in a water-vapor-saturated chamber at 24° C. and then for 5 days in a greenhouse at from 20° to 30° C. To accelerate the sporangiophore discharge, the plants were then again set up in the moist chamber for 16 hours. The extent to which the leaves had been attacked was then assessed.

[3] = test system: Pyricularia oryzae; format: in vivo, Pyricularia oryzae on rice seedlings ("Bahia"); settings: 0.05 wt % spray liquors; protective, inoculated 24 hours after spraying; assessed after 6 days
[4] = test system: Plutella maculipennis (diamondback moth); assay: Plutella maculipennis (diamondback moth); ingestion-inhibiting action; format: in vivo; settings: Plutella maculipennis 4th-stage caterpillars on dipped kohlrabi leaves, after 48 hours
Protocol: Young kohlrabi leaves are dipped for 3 seconds into aqueous solutions of the candidate compounds, and then placed on a round filter paper 9 cm in diameter which has been moistened with 0.5 ml of water. The filter paper is then placed in a Petri dish 10 cm in diameter. 10 caterpillars in the 4th larval stage are then placed on each leaf and the Petri dish is closed. Ingestion inhibition is determined in % after 48 hours.

[5] = test system: Musca domestica (housefly); assay: Musca domestica (housefly); continuous contact action; format: in vivo; settings: continuous contact in Petri dish, counted after 24 hours
Protocol: Both the tops and bottoms of Petri dishes 10 cm in diameter were lined with a total of 1 ml of acetonic solutions of the active ingredients. After the solvent had evaporated (about 30 mins.), 10 files and absorbent cotton steeped in water were introduced into each dish and the dishes closed. The flies in supine position were counted after 24 hours.
If a kill rate of 80 to 100% occurs at a concentration of 0.01 mg/dish, the test is continued with falling concentrations.

Compound	fungicidal action [1] [%]	fungicidal action [2] [%]	fungicidal action [3] [%]	further results
COC=C(C(=O)OC)c1ccccc1CON=C(c1ccccc1)C1CC1 [14 (Table I)]	95	95	–	–
COC=C(C(=O)OC)c1ccccc1CON=C(c1ccc(Cl)cc1)C1CC1 [16 (Table I)]	95	95	–	–
COC=C(C(=O)OC)c1ccccc1CON=C(c1ccc(OC)cc1)C1CC1 [17 (Table I)]	95	95	–	–
CON=C(C(=O)OC)c1ccccc1CON=C(c1ccc(OC)cc1)C1CC1 [17 (Table II)]	95	95	100	–
COC=C(C(=O)OC)c1ccccc1CON=C(C#N)C(C)C [49 (Table I)]	95	95	–	–
COC=C(C(=O)OC)c1ccccc1CON=C(C#N)OC1CCCCO1 (stereo not shown) [429 (Table I)]	95	95	100	–
COC=C(C(=O)OC)c1ccccc1CON=C(C)c1cccc(C)c1 [616 (Table I)]	95	95	100	–
CON=C(C(=O)OC)c1ccccc1COc1ccccc1 [A, 2-(phenoxymethyl)-phenylglyoxylic acid-methyl ester-O-methyloxime, reference compound]	50	50	–	–
COC=C(C(=O)OC)c1ccccc1CON=C(c1ccc(F)cc1)C1CC1 [Compound no. 15 (Table I)]	95	95	–	–
CON=C(C(=O)OC)c1ccccc1CON=C(c1ccc(F)cc1)C1CC1 [Compound no. 15 (Table II)]	–	95	100	–
CON=C(C(=O)OC)c1ccccc1CON=C(c1ccc(Cl)cc1)C1CC1 [Compound no. 16 (Table II)]	–	95	100	–
CON=C(C(=O)OC)c1ccccc1CON=C(C#N)C(C)(C)OC [Compound no. 36 (Table II)]	–	95	–	–
CON=C(C(=O)OC)c1ccccc1CON=C(C#N)C(C)(C)SC [Compound no. 43 (Table II)]	–	95	–	–
CON=C(C(=O)OC)c1ccccc1CON=C(C#N)C(C)C [Compound no. 49 (Table II)]	–	95	–	–
CON=C(C(=O)OC)c1ccccc1CON=C(C#N)C1CC1 [Compound no. 56 (Table II)]	–	95	–	–
CON=C(C(=O)OC)c1ccccc1CON=C(C#N)c1ccccc1 [Compound no. 117 (Table II)]	–	95	–	–
COC=C(C(=O)OC)c1ccccc1CON=C(C#N)c1ccc(F)c(Cl)c1 [Compound no. 156 (Table I)]	–	95	–	–
CON=C(C(=O)OC)c1ccccc1CON=C(C#N)OC1CCCCO1 (stereo not shown) [Compound no. 429 (Table II)]	–	95	–	–
CON=C(C(=O)OC)c1ccccc1CON=C(C)c1ccc(F)cc1 [Compound no. 571 (Table II)]	–	–	100	–
COC=C(C(=O)OC)c1ccccc1CON=C(C)c1ccccc1Cl [Compound no. 573 (Table I)]	95	95	–	–
COC=C(C(=O)OC)c1ccccc1CON=C(C)c1ccc(Cl)cc1Cl [Compound no. 578 (Table I)]	95	95	–	–
COC=C(C(=O)OC)c1ccccc1CON=C(C)c1cc(Cl)ccc1Cl [Compound no. 579 (Table I)]	–	95	–	–
COC=C(C(=O)OC)c1ccccc1CON=C(C)c1cc(Cl)cc(Cl)c1 [Compound no. 582 (Table I), Methyl 3-methoxy-2-[2′-[1″-(3′″,5′″-dichlorophenyl)-1″-methyl]-iminooxymethyl]-phenylacrylate]	95	95	–	–

Compound	fungicidal action [1] [%]	fungicidal action [2] [%]	fungicidal action [3] [%]	further results
CON=C(C(=O)OC)c1ccccc1CON=C(C)c1cc(Cl)cc(Cl)c1 [Compound no. 582 (Table II), Methyl 2-methoximino-2-[2′-(1″-(3′″,5′″-dichlorophenyl)-1″-methyl)-iminooxymethyl]-phenylacetate]	–	95	100	–
COC=C(C(=O)OC)c1ccccc1CON=C(C)c1ccc(Cl)c(Cl)c1Cl [Compound no. 583 (Table I)]	–	95	100	–
CON=C(C(=O)OC)c1ccccc1CON=C(C)c1ccc(Cl)c(Cl)c1Cl [Compound no. 583 (Table II)]	–	–	100	–
COC=C(C(=O)OC)c1ccccc1CON=C(C)c1cccc(Br)c1 [Compound no. 592 (Table I)]	95	95	100	–
CON=C(C(=O)OC)c1ccccc1CON=C(C)c1cccc(Br)c1 [Compound no. 592 (Table II)]	–	–	100	–
COC=C(C(=O)OC)c1ccccc1CON=C(C)c1ccc(Br)cc1 [Compound no. 593 (Table I), Methyl 3-methoxy-2-[2′-(1″-(4′″-bromophenyl)-1″-methyl)-iminooxymethyl]-phenylacrylate]	–	95	100	–
CON=C(C(=O)OC)c1ccccc1CON=C(C)c1ccc([N+](=O)[O-])cc1 [Compound no. 614 (Table II), Methyl 2-methoximino-2-[2′-(1″-(4′″-nitrophenyl)-1″-methyl)-iminooxymethyl]-phenylacetate]	–	95	–	–
CON=C(C(=O)OC)c1ccccc1CON=C(C)c1ccc(C(C)(C)C)cc1 [Compound no. 644 (Table II)]	95	95	100	–
COC=C(C(=O)OC)c1ccccc1CON=C(C)c1ccccc1C(F)(F)F [Compound no. 704 (Table I)]	95	95	–	–
COC=C(C(=O)OC)c1ccccc1CON=C(C)c1cccc(C(F)(F)F)c1 [Compound no. 705 (Table I)]	95	95	–	–
COC=C(C(=O)OC)c1ccccc1CON=C(C)c1ccc(C(F)(F)F)cc1 [Compound no. 706 (Table I)]	–	95	100	–
CON=C(C(=O)OC)c1ccccc1CON=C(C)c1ccc(Oc2ccccc2)cc1 [Compound no. 769 (Table II)]	–	–	100	–
CON=C(C(=O)OC)c1ccccc1CON=C(C)c1ccc(C2CCCCC2)cc1 [Compound no. 782 (Table II)]	–	–	100	–
COC=C(C(=O)OC)c1ccccc1CON=C(c1ccc(Cl)cc1)C1CC1 [compound 16]	–	–	–	Mortality in % ([4]; application rate 400 ppm): 80%
COC=C(C(=O)OC)c1ccccc1CON=C(C#N)C(C)(C)OC [compound 36]	–	–	–	Mortality in % ([5]; application rate 1.0 ppm): 80%; Mortality in % ([4]; application rate 200 ppm): 80%
CCOC(C)(C)C(C#N)=NOCc1ccccc1C(=COC)C(=O)OC [compound 37]	–	–	–	Mortality in % ([5]; application rate 0.1 ppm): 100%
COC=C(C(=O)OC)c1ccccc1CON=C(C#N)C(C)C [compound 49]	–	–	–	Mortality in % ([5]; application rate 0.1 ppm): 80%; Mortality in % ([4]; application rate 200 ppm): 80%
COC=C(C(=O)OC)c1ccccc1CON=C(C#N)OC1CCCCO1 (stereo not shown) [compound 429]	–	–	–	Mortality in % ([4]; application rate 1000 ppm): 80%
COC=C(C(=O)OC)c1ccccc1CON=C(C)c1cc(Cl)cc(Cl)c1 [compound 582]	–	–	–	Mortality in % ([5]; application rate 0.1 ppm): 80%; Mortality in % ([4]; application rate 400 ppm): 100%
COC=C(C(=O)OC)c1ccccc1CON=C(C)c1cccc(Br)c1 [compound 592]	–	–	–	Mortality in % ([4]; application rate 400 ppm): 80%
COC=C(C(=O)OC)c1ccccc1CON=C(C)c1ccc(Br)cc1 [compound 593]	–	–	–	Mortality in % ([5]; application rate 0.1 ppm): 60%; Mortality in % ([4]; application rate 1000 ppm): 80%
COC=C(C(=O)OC)c1ccccc1CON=C(C)c1cccc(C(F)(F)F)c1 [compound 705]	–	–	–	Mortality in % ([5]; application rate 0.1 ppm): 100%; Mortality in % ([4]; application rate 400 ppm): 80%
COC=C(C(=O)OC)c1ccccc1CON=C(C)c1ccc(C(F)(F)F)cc1 [compound 706]	–	–	–	Mortality in % ([5]; application rate 0.1 ppm): 100%; Mortality in % ([4]; application rate 400 ppm): 80%
